In US20090274638A1, “COSMETIC USE OF A C-GLYCOSIDE DERIVATIVE IN COMBINATION WITH ASCORBIC ACID” (L'OREAL, priority 2006, published 2009):

Tested on: normal human dermal fibroblasts (NHDF)
Assay: type I procollagen ELISA assay on culture medium of fibroblasts after 72 hours incubation
Type: cell-based
Conditions: for Procollagen 1 / %/blank: NHDF, 72 hours; for Procollagen 1: DMEM containing 10% FCS, ELISA on culture medium; for %/blank: procollagen 1 relative to blank, DMEM 10% FCS
Method: The efficacy of a combination in accordance with the invention is tested by assaying the procollagen 1. To do this, a composition in accordance with the invention is placed in contact with normal human dermal fibroblasts and the whole is left to incubate for 72 hours before assaying.
The C-glycoside derivative used is C-β-D-xylopyranoside-2-hydroxypropane sold under the name Mexoryl® from Chimex. It is in the form of a solution containing 30% by weight of active material in a 60/40 water/1,2-propanediol mixture.
• Normal human dermal fibroblasts (NHDF) (R8PF2), obtained from a mammary plasty • Type: pool PF2, used at the 8th passage • Culture: 37° C., 5% CO2 • Test culture medium: DMEM (Invitrogen 21969035) • L-glutamine 2 mM (Invitrogen 25030024) • Penicillin 50 IU/ml streptomycin 50 μg/ml (Invitrogen 15070063) • 10% Foetal calf serum (v/v, Invitrogen 10270098).
The normal human dermal fibroblasts (R8PF2) are inoculated in whole DMEM medium and preincubated for 24 hours at 37° C. and 5% CO2. At 80% confluence, the culture medium is replaced with DMEM test medium containing 10% FCS with or without (blank) the products or mixtures to be tested or the reference (TGF-β). The cells are then incubated at 37° C. for 72 hours. Each experimental condition was performed in triplicate.
After incubation, the culture media are harvested and the type I procollagen assay is performed on a sample of medium using a specific ELISA assay kit and according to the supplier's instructions (Procollagen Type I C-Peptide EIA Kit, Bio-Whittaker MK101). An MTT viability test is performed on the cell lawns.

SMILES	Procollagen 1 (1 mM)	%/blank (1 mM)	amount of procollagen 1 synthesized by the fibroblasts (in words) (tested at 1 mm, culturing for 72 hours in DMEM medium containing 10% FCS)	Procollagen 1 (0.01 mg/ml)	%/blank (0.01 mg/ml)	synthesis of procollagen 1 by the fibroblasts (in words) (tested at 0.01 mg/ml, culturing for 72 hours in DMEM medium containing 10% FCS)
CC(O)C[C@@H]1OC[C@@H](O)[C@H](O)[C@H]1O (stereo partly drawn) [C-Glycoside derivative, C-β-D-xylopyranoside-2-hydroxypropane]	1838 ng/mL	96%	does not significantly modify	–	–	–
O=C1O[C@H]([C@@H](O)CO)C(O)=C1O [Ascorbic acid, ascorbic acid]	–	–	–	17052 ng/mL	887%	significantly increases
